Values joined by “and” are separate entries in the source; they are usually repeats but may differ in a detail not shown here. Equal entries are not always repeated. Where two headings read alike, the source gives them in different places.
Experiments:
Aedes aegypti [1] = experiment: Patch test of mosquito repellency (landings on treated gauze); assay type: in vivo; settings: for Mosquito repellency of chromatography fractions (active / inert): patch test of Test 1, fractions of the hexane portion
Description: Aedes aegypti were used in the tests of mosquito repellency in the experiments of the present invention. They were provided from the National Institute of Health in Korea and were selected from indoor breeding insects that were not exposed to insecticides or other drugs. Larvae were reared in 30×35×10 cm cages. […] The pupae were transferred to a paper-cup using a spoide and then the paper-cup was moved to a cage being a structure (35×35×35 cm) made from wire. […] For patch test, 35×35×35 cm screen wire cage were used. Tests were conducted on nulliparous females 7-10 days old. The methanol extract and 4 types of portions prepared in the Example 1 and 100 μl of ethanol were applied to a piece of gauze (50 mm-diameter). After drying in the air for 2 minutes, the gauze was put on a rubber glove with a 50 mm-diameter hole punched in it and it was exposed in a cage (35×35×35 cm containing 60 mosquitoes). Because the gauze on the rubber glove was 5 mm away from the skin, mosquitoes would probe through the gauze in an attempt to feed but could not reach the back of the hand. Repellent activity was measured by the number of mosquitoes landing on the gauze for 5 minutes. An untreated gauze (95% ethanol only) was also exposed to mosquitoes in the same manner and considered as a control. The degree of repellency was expressed in terms of percent repellency calculated according to the following equation. [formula] Also, in order to identify mosquito repelling activity, it was compared with synthetic repellent DEET by recording the number of landings.

[2] = skin treated with 300 ug/cm^2 DEET, cited from earlier work
Aedes aegypti [3] = experiment: Skin test of mosquito repellency (bites on treated skin); assay type: in vivo
Protocol: In order to exactly confirm mosquito repellent activity, the compounds containing repellent activity were further examined by a skin test directly against skin. The cage was covered with a 35×35×35 cm mail net structure. Tests were conducted against nulliparous females 7–10 days old. Both compounds, in 100 μl of ethanol, were applied to a rubber glove surface with a 50 mm diameter hole punched on the hand. After drying in the air for 1 minute, skin was exposed for 5 minutes in a cage containing 60 mosquitoes. Repellent activity was measured by the number of mosquitoes biting the skin. The control treated only with 95% ethanol was also exposed to mosquitoes in the same manner. The degree of repellency was expressed in terms of percent repellency calculated according to the following Equation 2. [formula]

rat [4] = settings: oral administration; cited from earlier work
rat [5] = settings: epidermal; cited from earlier work
[6] = patch test, dose 0.004 mg/cm^2 (so in the source)

Compound | Repellency (average ± standard deviation, %) (Aedes aegypti [1]; [6]) [a %] | Repellency (average ± standard deviation, %) (Aedes aegypti [1]; patch test, dose 0.005 mg/cm^2) | Repellency (average ± standard deviation, %) (Aedes aegypti [1]; patch test, dose 0.01 mg/cm^2) [b %] | Repellency (average ± standard deviation, %) (Aedes aegypti [1]; patch test, dose 0.02 mg/cm^2) [a %] | Repellency (%) (Aedes aegypti [1]; patch test, dose 0.1 mg/cm^2, A. aegypti females, 5 min exposure) | skin penetration ratio ([2]; after 1 hour) [%] | skin penetration ratio ([2]; after 12 hours) [%] | Repellency (average ± standard deviation, %) (Aedes aegypti [3]; dose 0.04 mg/cm^2) | Repellency (average ± standard deviation, %) (Aedes aegypti [3]; dose 0.1 mg/cm^2) | Repellency (average ± standard deviation, %) (Aedes aegypti [3]; dose 0.2 mg/cm^2) | Repellency (average ± standard deviation, %) (Aedes aegypti [3]; dose 0.4 mg/cm^2) | Mosquito repellency of chromatography fractions (active / inert) (Aedes aegypti [1]) | Repellency (average ± standard deviation, %) (Aedes aegypti [1]; patch test, dose 0.005 mg/cm^2, listed as fenchone) [%] | Repellency (average ± standard deviation, %) (Aedes aegypti [1]; patch test, dose 0.01 mg/cm^2, listed as fenchone) | Repellency (average ± standard deviation, %) (Aedes aegypti [3]; dose 0.4 mg/cm^2, listed as fenchone) | LD50 (rat [4]) | LD50 (rat [5])
CCN(CC)C(=O)c1cccc(C)c1 [DEET, N,N-diethyl-m-toluamide, reference compound] | 100 | 84.6% and 84.6 ± 1.3c % | 96.4 ± 0.5 | 100 | > 80 | 30 | 36 | 98.4 ± 0.5b % | 100a % | 100a % | 100a % |  |  |  |  |  | 
CCCCCCCC/C=C/CCCCCCCC(=O)O [E-9-octadecenoic acid] | 100 | 73.4% and 73.4 ± 2.3c % |  | 98.6 ± 0.9 |  |  |  |  |  | 52.3 ± 0.9% | 80.4% and 80.4 ± 0.2% | potent active principles |  |  |  |  | 
CC1(C)C(=O)[C@@]2(C)CC[C@@H]1C2 [Fenchone, (+)-fenchone] | 100 | 82.1 ± 0.7c % | 93.9 ± 0.6 | 100 |  |  |  | 76.2 ± 0.2c % | 91.7 ± 0.9b % | 100a % | 100a % |  | 82.1 | potent repellency comparable with that of DEET | perfect repellent activity |  | 
CC1CCC(C(C)(C)O)C(O)C1 (stereo not shown) [PMD, p-menthan-3,8-diol] |  |  |  |  |  |  |  |  |  |  |  |  |  |  |  | 2,408 mg/kg | > 2,000 mg/kg
(+)-fenchone |  |  |  |  |  |  |  |  |  |  |  | potent active principles |  |  |  |  | 
